Test results reported in patent publication US8673890B2, “2,3-dihydro-1H-isoindol-1-imine derivatives useful as thrombin PAR-1 receptor antagonist” (Janssen Pharmaceutica NV, priority 2009, dated 2014).
Values joined by “and” are separate entries in the source; they are usually repeats but may differ in a detail not shown here. Identical values can stand only once.

How the values were obtained:
[1] = molecular target: T1, thrombin receptor (PAR-1) (Homo sapiens, UniProt P25116); assay: FLIPR-based calcium-flux assay with human smooth muscle cells (Har peptide agonist); assay type: cell-based; settings: HSMC; 30 nM Har (PAR1) peptide agonist; 80-min drug incubation; multiple values = individual measurements
T1 construct: Human aortic smooth muscle cells (HSMC) were purchased from Cascade Biologics; host or cells: human aortic smooth muscle cells (HSMC)
T1 sequence (P25116 22-425): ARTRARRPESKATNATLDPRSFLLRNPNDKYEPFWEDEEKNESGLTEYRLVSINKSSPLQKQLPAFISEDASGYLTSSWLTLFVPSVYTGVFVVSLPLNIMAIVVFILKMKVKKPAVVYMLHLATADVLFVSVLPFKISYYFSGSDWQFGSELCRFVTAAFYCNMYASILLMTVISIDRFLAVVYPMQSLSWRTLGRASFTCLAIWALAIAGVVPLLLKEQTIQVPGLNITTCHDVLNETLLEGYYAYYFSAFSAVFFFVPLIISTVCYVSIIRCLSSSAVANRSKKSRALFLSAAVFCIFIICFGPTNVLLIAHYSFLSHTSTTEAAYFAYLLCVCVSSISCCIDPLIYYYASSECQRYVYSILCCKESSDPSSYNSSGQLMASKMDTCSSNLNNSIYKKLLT
Procedure: Human aortic smooth muscle cells (HSMC) were purchased from Cascade Biologics (Portland, Oreg.) and cultured in M-231 containing smooth muscle cell growth supplement and 1× Antibiotic-Antimycotic.
To determine agonist concentration for compound testing: On the day prior to the assay, 100 μL of cells (2×10^5/mL) were seeded in clear, flat-bottom black-wall, tissue culture treated polystyrene 96-well plates and incubated at 37° C., 5% CO2. On the day of the assay, 50 μL of complete dye loading solution (FLIPR Calcium 3 Kit, Molecular Devices) was added to each well containing 100 μL of culture media. The cells were incubated for 30-45 min at 37° C., in 5% CO2 before initiating the assay on the FLIPR. The agonist effect of PAR1 peptide (S-(p-F-Phe)-Har-L-Har-KY-NH2; Har=homoarginine; referred to herein as “Har” peptide) was tested and the EC50 was determined. The EC60-70 dose was used (30 nM) for compound testing.
Compound testing: On the day prior to the assay, 90 μL of cells (2.2×10^5/mL) were seeded in clear, flat-bottom black-wall, tissue culture treated polystyrene 96-well plates and incubated at 37° C., 5% CO2. On the day of the assay, the test compounds were prepared at 10× in 3% DMSO Hanks buffer and 10 μL was added to each well (final DMSO concentration of 0.3%). The cells were incubated 20 min at 37° C., 5% CO2. Culture medium containing testing compounds was dumped and the cells were washed four times with DPBS containing 0.1% of BSA and re-fed with 80 μL of growth medium. 70 μL of BD (fluorescent) dye was loaded to the cells and incubated 45 min at 37° C. incubator. The plates were equilibrated to room temperature for 15 min. 4× PAR1 peptide (30 nM final concentration) agonist plate and the cell plate were placed in FLIPR's assay chamber. 50 μL agonist was added to the cells and data was recorded for 5 min. Raw fluorescence data was exported for each well and tabulated versus time within an ASCII file. Data was then imported into Excel® and the peak response over basal level was determined. The percent inhibition for each test compound was calculated by the changes of fluorescent density as a % inhibition of the control Har peptide response to obtain an IC50.
(§1) Representative compounds of the present invention were tested according to the procedure described in Biological Example 1 above, with results in Table 8 below. In Table 8 below, where multiple values are listed for a particular compound, said numbers represent individual measurements (tests) for said compound.

washed platelets [2] = assay: Thrombin-induced platelet aggregation in washed platelets; assay type: cell-based, human; settings: Homo sapiens, Platelet
Procedure: (§2) Platelet aggregation studies were performed according to the method of Bednar et al. (Bednar, B., Condra, C., Gould, R. J., and Connolly, T. M., Thromb. Res., 77:453-463 (1995)). Platelet-rich plasma (PRP) concentrates prepared from healthy volunteers who were aspirin free for at least 7 days by venipuncture using ACD-A as anticoagulant was purchased from Biological Specialties, Inc. (Colmar, Pa.). PRP was centrifuged at 730 g for 15 min. The platelet pellet was washed twice in CGS buffer (13 mM sodium citrate, 30 mM glucose, 120 mM NaCl, pH 6.5) containing 1 U/ml apyrase (grade V, Sigma-Aldrich, St. Louis, Mo.), 1 mM EGTA, and re-suspended in Tyrode's buffer (140 mM NaCl, 2.7 mM KCl, 12 mM NaHCO3, 0.76 mM Na2HPO4, 5.5 mM dextrose, 5.0 mM HEPES, 0.2% BSA, pH 7.4). The platelets were diluted to 3×10^8 platelets/ml and kept >45 min at 37° C. before use. 105 μl of washed platelets, 2 mM CaCl2 and […] of fibrinogen (for PAR-1 peptide-induced platelet aggregation only) were added to a 96-well microliter plate. Platelet aggregation was initiated by the addition of serial concentrations of Har peptide or thrombin (Alpha; American Diagnostica, Cat. # 470HT, 2,500 NIH Units/mg). Buffer was added to one set of control wells. The assay plate was stirred constantly and intermittently placed in a microplate reader (Softmax, Molecular Devices, Menlo Park, Calif.) to read optical density (650 nm) at 0 and 5 minutes after the addition of the compound solutions. Aggregation was calculated as the decrease in optical density between the time 0- and 5-min measurements and expressed as % of aggregation.
(§3) For the inhibition assay, platelet aggregation measurements were conducted as described, with the additional step of test compound addition. Compounds were prepared in 100% DMSO and stored. On the day of the experiment, the compounds were diluted in the Tyrode's buffer containing 3% of DMSO as a 10× working solution. 15 μl of test compound solutions were added to 105 μl of platelets 5 min prior to CaCl2 and fibrinogen additions. Platelet aggregation was initiated by the addition of agonist shown to achieve 60-70% aggregation. Antagonist potency was estimated as a % inhibition of the control Har peptide or thrombin response to obtain an IC50.
as §1, with “2” for “1”, “9” for “8”, “9” for “8 below,”

washed platelets [3] = assay: Har peptide-induced platelet aggregation in washed platelets; assay type: cell-based; settings: Homo sapiens
Procedure: as §2, §3
as §1, with “2” for “1”, “9” for “8”, “9” for “8 below,”

[4] = test system: platelets in platelet-rich plasma; assay: Thrombin-induced platelet aggregation in platelet-rich plasma; assay type: cell-based, human; settings: for IC50: multiple values = individual measurements
Procedure: (§4) The procedure for this assay is similar to that described in Biological Example 2, above. Briefly, platelet aggregation studies were performed according to the method of Bednar et al. (Bednar, B., Condra, C., Gould, R. J., and Connolly, T. M., Thromb. Res., 77:453-463 (1995)). Platelet-rich plasma (PRP) concentrates prepared from healthy volunteers who were aspirin free for at least 7 days by venipuncture using EDTA as anticoagulant was purchased from Biological Specialties, Inc. (Colmar, Pa.). PPP (platelet-poor-plasma) was obtained by centrifugation of PRP at Max (3,000 rpms) for 15 min at room temperature. PRP was diluted to yield platelet count of 300×10^3 platelets/μL with PPP. For thrombin induced platelet aggregation: 118 μL of 500 mM GPRP-NH2 was added to 12 mL of 300×10^3 platelets before using (to clean the fibrinogen in the plasma.) GPRP was added just before the experiment. 15 μL of test compound solutions were added to 120 μL of platelets 5 min prior the agonist additions. Platelet aggregation was initiated by the addition of agonist shown to achieve 60-70% aggregation. Antagonist potency was estimated as a % inhibition of the control Har peptide or thrombin response to obtain an IC50.
(§5) Where multiple values are listed for a particular compound, said numbers represent individual measurements (tests) for said compound.

[5] = test system: platelets in platelet-rich plasma; assay: Har peptide-induced platelet aggregation in platelet-rich plasma; assay type: cell-based, human; settings: multiple values = individual measurements
Procedure: as §4, §5

Row | Compound | IC50 [1] | IC50 (washed platelets [2]) | IC50 (washed platelets [3]) | IC50 [4] | IC50 ([5]; Homo sapiens, Platelet) | IC50 ([4]; Homo sapiens, Platelet) | inhibition at 10 µM ([4]; Homo sapiens, 10 μM compound) | IC50 [5]
1 | COc1c(C(C)(C)C)cc(C(=O)CN2Cc3cc4c(cc3C2=N)OCc2ncccc2CO4)cc1C(C)(C)C [Compound 75] | 0.39 µM and 0.46 µM | > 10 µM | 0.183 µM | 2190 nM and > 10000 nM | 3040 nM | – | – | –
2 | COC(=O)c1ccc2c(c1)COc1cc3c(cc1OC2)CN(CC(=O)c1cc(N2CCOCC2)c(OC)c(C(C)(C)C)c1)C3=N [Compound 73] | 0.047 µM and 0.057 µM | 0.813 µM | 0.446 µM | 2430 nM and > 10000 nM | 6710 nM | – | – | –
3 | COc1c(N2CCOCC2)cc(C(=O)CN2Cc3cc4c(cc3C2=N)OCc2cc3c(cc2CO4)OCO3)cc1C(C)(C)C [Compound 59] | 0.371 µM | 2.11 µM | 1.25 µM | – | 6120 nM | – | – | –
4 | COc1c(N2CCOCC2)cc(C(=O)CN2Cc3cc4c(cc3C2=N)OCc2ncccc2CO4)cc1C(C)(C)C [Compound 52] | 0.025 µM | 0.282 µM | 0.172 µM | – | – | – | – | –
5 | CC(C)(C)c1cc(C(=O)CN2Cc3cc4c(cc3C2=N)OCc2cc([N+](=O)[O-])ccc2CO4)cc(C(C)(C)C)c1O [Compound 84] | 0.029 µM and 0.047 µM and 0.048 µM and 0.011 µM | – | – | – | 2470 nM | 2510 nM | – | –
6 | COc1c(N2CCOCC2)cc(C(=O)CN2Cc3cc4c(cc3C2=N)OCc2ccccc2CO4)cc1C(C)(C)C [Compound 46] | 0.094 µM and 0.1 µM | – | – | – | 1820 nM | 4710 nM | 34% | 1040 nM
7 | CC(C)(C)c1cc(C(=O)CN2Cc3cc4c(cc3C2=N)OC/C=C\CO4)cc(C(C)(C)C)c1O [Compound 100, (Z)-1-(3,5-di-tert-butyl-4-hydroxyphenyl)-2-(8-imino-2H-[1,4]-dioxocino[2,3-f]isoindol-9(5H,8H,10H)-yl)ethanone] | 0.022 µM and 0.027 µM | – | – | – | 1610 nM | 1920 nM | – | –
8 | CC(C)(C)c1cc(C(=O)CN2Cc3cc4c(cc3C2=N)OCc2ccccc2CO4)cc(C(C)(C)C)c1O [Compound 47] | 0.04 µM and 0.088 µM | – | – | 2750 nM | 2270 nM | 2540 nM | – | 2250 nM
9 | COc1c(N2CCOCC2)cc(C(=O)CN2Cc3cc4c(cc3C2=N)OCc2cc(C)c(C)cc2CO4)cc1C(C)(C)C [Compound 98] | 0.27 µM and > 1 µM | – | – | – | > 10000 nM | > 10000 nM | – | –
